Values of other authors as cited in US10550186B2, “Cancer therapy targeting intercellular adhesion molecule 4 (ICAM4)” (Beth Israel Deaconess Medical Center, Inc., priority 2014, dated 2020).

Details: more cytotoxic than the comparators

For `COc1cc2cc(c1Cl)N(C)C(=O)C[C@H](OC(=O)[C@H](C)N(C)C(C)=O)[C@]1(C)O[C@H]1[C@H](C)[C@@H]1C[C@@](O)(NC(=O)O1)[C@H](OC)/C=C/C=C(\C)C2` [Maytansine], the “cytotoxicity relative to doxorubicin, methotrexate and vinca alkyloid” value is given as 100- to 1000 fold.
